One assay has as its system OV90. Description: In-vitro cytotoxicity, CCK-8 assay. The assay is classed as cell-based. As to conditions: OV90 (ovarian cancer); cell viability after 48 hours. Here is the method: (§1) In-Vitro cytotoxicity assays of GID10-ADC, DM1 and GID10 on HL-60, HCC1806, MDA-MB-231, Raji, RPMI8226, NCI-H929, MM.1S, G-361, THP-1, PL45, AsPC-1, KLM-1, OV90, 4Tl and EL-4 cells. Cell viability was measured after 48 hours using Cell Counting Kit-8 (CCK-8) assay (DOJINDO™, Cat. No. CK04-13), as shown in Table 3. For example, on Day 0, THP-1 cells were seeded at […] cells per well in a 96-well plate and treated with diluted test compounds. The cells were incubated for 48 hours at 37° C. with 5% CO2. On Day 2, 20 μl of CCK-8 was added to each well, followed by incubation for 1-4 hours. Absorbance at 450 nm was then measured to assess cell viability and the impact of the test compounds. For suspension cells, such as HL-60, Raji, RPMI8226, NCI-H929, MM. 1S, and THP-1, 5×10^4 cells per well were inoculated into a 96-well plate. For adherent cells, such as HCC1806, MDA-MB-231, G361, PL45, AsPC-1, KLM-1, OV90, and EL-4, 1.5-5×10^3 cells per well were inoculated based on their doubling time. Adherent cells with a doubling time of less than 24 hours were seeded at 1.5×10^3 cells per well (EL-4), while those with a doubling time of more than 24 hours were seeded at 5×10^3 cells per well. […] DM1 was used as the positive control agent. The cell lines tested included HL-60, HCC1806, MDA-MB-231, Raji, RPMI8226, NCI-H929, MM.1S, G-361, THP-1, PL45, AsPC-1, KLM-1, OV90, 4T1, and EL-4 cells. Cell viability was measured after 48 hours using the Cell Counting Kit-8 (CCK-8) assay (DOJINDO™, Cat. No. CK04-13). IC50 (M) was calculated to determine the efficacy of the antibody, DM1, and ADC on the various cancer cell lines.
A general note: Tetrazolium assays rely on reduction of a dye to a coloured formazan, in cell work by metabolically active cells.

The subject of a further assay is MDA-MB-231. Description: In-vitro cytotoxicity, CCK-8 assay. As to conditions: MDA-MB-231 (TNBC); cell viability after 48 hours. It counts as cell-based. Here is the method: as §1
Another assay relates to ASPC1. Description: In-vitro cytotoxicity, CCK-8 assay. It counts as cell-based. The note with it: ASPC1 (pancreatic cancer); cell viability after 48 hours. The method, then:
as §1

The test system of another assay is RPMI8226. Description: In-vitro cytotoxicity, CCK-8 assay. The assay is classed as cell-based. As to conditions: RPMI8226 (MM); cell viability after 48 hours. The method, then:
as §1

Another assay deals with Raji. Description: In-vitro cytotoxicity, CCK-8 assay. It counts as cell-based. The note with it: Raji (DLBCL); cell viability after 48 hours. Here is the method: as §1
The subject of another assay is MM.1S. Description: In-vitro cytotoxicity, CCK-8 assay. It counts as cell-based. The note with it: MM.1S (MM); cell viability after 48 hours. The method, then: as §1
For another assay, the system named is G361. Description: In-vitro cytotoxicity, CCK-8 assay. The assay is classed as cell-based. The note with it: G361 (melanoma); cell viability after 48 hours. Here is the method:
as §1

In the next assay the test system is HCC1806. Description: In-vitro cytotoxicity, CCK-8 assay. It counts as cell-based. The note with it: HCC1806 (TNBC); cell viability after 48 hours. Here is the method:
as §1

A further assay relates to EL4. Description: In-vitro cytotoxicity, CCK-8 assay. The assay is classed as cell-based. The note with it: EL4 (murine lymphoma); cell viability after 48 hours. The method, then: as §1
For a further assay, the system named is 4T1. Description: In-vitro cytotoxicity, CCK-8 assay. The assay is classed as cell-based. The note with it: 4T1 (murine breast cancer, stage IV); cell viability after 48 hours. The method, then:
as §1

The subject of a further assay is NCI-H929. Description: In-vitro cytotoxicity, CCK-8 assay. It counts as cell-based. As to conditions: NCI-H929 (MM); cell viability after 48 hours. The method, then: as §1
A further assay concerns THP-1 cells. Description: In-vitro cytotoxicity, CCK-8 assay. It counts as cell-based, human. The note with it: THP-1 (AML), cell viability after 48 hours. Here is the method: (§2) In-Vitro cytotoxicity assays of GID10-ADC, DM1 and GID10 on HL-60, HCC1806, MDA-MB-231, Raji, RPMI8226, NCI-H929, MM.1S, G-361, THP-1, PL45, AsPC-1, KLM-1, OV90, 4Tl and EL-4 cells. Cell viability was measured after 48 hours using Cell Counting Kit-8 (CCK-8) assay (DOJINDO™, Cat. No. CK04-13), as shown in Table 3. For example, on Day 0, THP-1 cells were seeded at […] cells per well in a 96-well plate and treated with diluted test compounds. The cells were incubated for 48 hours at 37° C. with 5% CO2. On Day 2, 20 μl of CCK-8 was added to each well, followed by incubation for 1-4 hours. Absorbance at 450 nm was then measured to assess cell viability and the impact of the test compounds. […] Cell viability was measured after 48 hours using the Cell Counting Kit-8 (CCK-8) assay (DOJINDO™, Cat. No. CK04-13). IC50 (M) was calculated to determine the efficacy of the antibody, DM1, and ADC on the various cancer cell lines.
(§3) In-Vitro cytotoxicity assays of Dxd-conjugated ADC and free payload Dxd on THP-1, NCI-N87, Capan-1, and KLM-1 cells. Cell viability was measured after 48 hours using Cell Counting Kit-8 (CCK-8) assay (DOJINDO™, Cat. No. CK04-13), as shown in Table 4. […] Absorbance at 450 nm was then measured to assess cell viability and the impact of the test compounds. […] Cell viability was measured after 48 hours using the Cell Counting Kit-8 (CCK-8) assay (DOJINDO™, Cat. No. CK04-13). […]

A further assay concerns KLM-1. Description: In-vitro cytotoxicity, CCK-8 assay. The assay is classed as cell-based. The note with it: KLM-1 (pancreatic cancer), cell viability after 48 hours. Here is the method: as §2, §3
The test system of another assay is H460. Description: In-vitro cytotoxicity, CCK-8 assay. It counts as cell-based. The note with it: H460 (lung cancer); cell viability after 48 hours.
In another assay the test system is Capan-1. Description: In-vitro cytotoxicity, CCK-8 assay. It counts as cell-based. The note with it: Capan-1 (pancreatic cancer); cell viability after 48 hours. The method, then:
(§4) In-Vitro cytotoxicity assays of Dxd-conjugated ADC and free payload Dxd on THP-1, NCI-N87, Capan-1, and KLM-1 cells. Cell viability was measured after 48 hours using Cell Counting Kit-8 (CCK-8) assay (DOJINDO™, Cat. No. CK04-13), as shown in Table 4. For example, on Day 0, THP-1 cells were seeded at 5×10^4 cells per well in a 96-well plate and treated with diluted test compounds. The cells were incubated for 48 hours at 37° C. with 5% CO2. On Day 2, 15 μl of CCK-8 was added to each well, followed by incubation for 1-4 hours. Absorbance at 450 nm was then measured to assess cell viability and the impact of the test compounds. For suspension cells, such as THP-1, 2-5×10^4 cells per well were inoculated into a 96-well plate. For adherent cells, such as NCI-N87, Capan-1, and KLM-1, 1.5-5×10^3 cells per well were inoculated based on their doubling time. As shown in FIGS. 6A-6C, THP-1, and KLM-1 cells are not killed in the presence of G1D10 antibody alone. […] Linker-Dxd was used as the positive control agent. The cell lines tested included THP-1, NCI-N87, Capan-1, and KLM-1 cells. Cell viability was measured after 48 hours using the Cell Counting Kit-8 (CCK-8) assay (DOJINDO™, Cat. No. CK04-13). IC50 (M) was calculated to determine the efficacy of the Linker-Dxd and the Dxd-conjugated ADC on the various cancer cell lines.

The next assay has as its system NCI-N87. Description: In-vitro cytotoxicity, CCK-8 assay. The assay is classed as cell-based. As to conditions: NCI-N87 (gastric cancer); cell viability after 48 hours. Here is the method: as §4
Assay [1] has as its target cell surface glucose-related protein 78 (GRP78) on cancer cell lines (human) (UniProt P11021). Description: flow cytometry, OVCAR3 cells; A488-anti-mouse-IgG alone 1.8%.

Sequence of cell surface glucose-related protein 78 (GRP78) on cancer cell lines (human) (P11021 19-654): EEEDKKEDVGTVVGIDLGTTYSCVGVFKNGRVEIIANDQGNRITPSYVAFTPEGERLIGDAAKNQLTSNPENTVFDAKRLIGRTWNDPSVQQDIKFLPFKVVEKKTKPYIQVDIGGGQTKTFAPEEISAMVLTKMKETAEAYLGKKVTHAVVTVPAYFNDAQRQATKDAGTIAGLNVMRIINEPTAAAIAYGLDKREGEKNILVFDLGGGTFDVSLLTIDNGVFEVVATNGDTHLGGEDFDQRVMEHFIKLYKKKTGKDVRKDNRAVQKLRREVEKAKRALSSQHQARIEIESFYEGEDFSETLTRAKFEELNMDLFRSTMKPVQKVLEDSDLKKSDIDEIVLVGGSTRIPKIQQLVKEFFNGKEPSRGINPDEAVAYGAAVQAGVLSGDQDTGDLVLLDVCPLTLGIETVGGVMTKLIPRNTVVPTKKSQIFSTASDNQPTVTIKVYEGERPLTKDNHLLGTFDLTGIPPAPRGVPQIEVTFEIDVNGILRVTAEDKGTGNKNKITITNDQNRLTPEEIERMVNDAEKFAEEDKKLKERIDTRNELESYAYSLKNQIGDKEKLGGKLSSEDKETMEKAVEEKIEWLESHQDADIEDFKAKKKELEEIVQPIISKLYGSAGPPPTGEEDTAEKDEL

Take `COc1cc2cc(c1Cl)N(C)C(=O)C[C@H](OC(=O)[C@H](C)N(C)C(=O)CCS)[C@]1(C)O[C@H]1[C@H](C)[C@@H]1C[C@@](O)(NC(=O)O1)[C@H](OC)/C=C/C=C(\C)C2` [DM1, emtansine (DM1)]: the IC50 (usually the concentration at which inhibition is half-maximal) came out at 55.2 nM with OV90; 28.5 nM in the assay on MDA-MB-231; 60.2 nM with ASPC1; 1.79 nM in the assay with RPMI8226; 4.35 nM in the assay on Raji; 4.86 nM with MM.1S. The IC50 is 3.11 nM with G361; 27.2 nM in the assay on HCC1806; 1.52 nM in the assay with EL4; 83 nM in the assay on 4T1; 1.13 nM with NCI-H929; 4.63 nM in the assay on THP-1 cells (Table 3). Further, the IC50 in the assay with KLM-1 (Table 3) was determined as 1.61 nM; in the assay on H460, 1.68 nM.
Regarding “N-hydrozysuccinimide (NHS)-VC-para-aminobenzyl carbamate (PABC)-Dxd [Linker-Dxd]”, the half-inhibitory concentration (IC50) was determined as 61.2 nM with THP-1 cells (Table 4), 184 nM in the assay with KLM-1 (Table 4), 296 nM in the assay with Capan-1 and 161 nM with NCI-N87.
Take “anti-GRP78 antibody C38 (eBioscience, Cat. No. 14-9768-82)”: the % (flow cytometry cell surface staining) in assay [1] stood at 2.3%.

The record behind these values is US20260061066A1, “ANTI-GRP78 ANTIBODY, IMMUNOCONJUGATE AND USES THEREOF” (UCT BIOSCIENCE CO., LTD., priority 2024, published 2026).
